Literature values, collected in patent US20090311266A1, “Inhibitors of the endothelin signalling pathway and alphavbeta3 integrin receptor antagonists for combination therapy” (BASF AKTIENGESELLSCHAFT, priority 1999, published 2009).

Assays:
[1] = tested on: pigs with coronary artery stents; conditions: 28 days of oral treatment (b.i.d.)
[2] = tested on: ischemic complications after coronary interventions
[3] = tested on: porcine coronary injury model

Molecule: CCCCN(CCCC)C(=O)CN1C[C@H](c2ccc3c(c2)OCO3)[C@@H](C(=O)O)[C@@H]1c1ccc(OC)cc1 (relative stereo) [A 127722, trans-trans-2-(4-methoxyphenyl)-4-(3,4-methylendioxyphenyl)-1-(2-(N,N-dibutylamino)-2-oxoethyl)-pyrrolidine-3-carboxylic acid]
- maximal reduction in neointima formation [1]: about 30%

Molecule: abciximab: anti-platelet integrin αIIbβ3 antibody abciximab (c7E3 Fab, Reopro®)
- suppression of ischemic complications (endpoints death, MI or repeat intervention) [2]: sustained suppression of ischemic complications

Molecule: cyclo[R-G-D-Mamb-A] [XJ 735]
- less lumen stenosis [3]: 2.9 fold
- reduction of neointimal hyperplasia [3]: 43%
